From patent publication EP4772177A1, “MUSCLE ATROPHY INHIBITOR” (National University Corporation Kobe University, priority 2023, dated 2025)

Tests used:
[1] = system: muscle atrophy model mice (immobilized mice); experiment: Effects of hydroxylated fatty acid on muscle atrophy model mice (hind limbs immobilized with plastic casts); assay type: in vivo, C57BL/6J mice; conditions: 1% in diet for 20 days (immobilization for the latter 10 days); for loss of soleus muscle (muscle weight per body weight): Fig. 2, n = 6; for loss of gastrocnemius muscle (gastrocnemius muscle weight per body weight): Fig. 3, n = 6; for loss of soleus muscle cross-sectional area: HE staining, 400 fibers pooled from 2 mice, Fig. 4
From the text: C57BL/6J mice (male, 10 weeks old) were fed a normal diet (CE-2, CLEA Japan, Inc.), a 1% linoleic acid-containing diet (LA), or a 1% 10-hydroxy-cis-12-octadecenoic acid-containing diet (HYA) (LA manufactured by Sigma-Aldrich and HYA manufactured by Noster Inc. were used) each for 10 days. Then, under general anesthesia, both hind limbs of the mice were immobilized with plastic casts to create immobilized mice. After 10 days of immobilization (still receiving the normal diet or each mixed diet), the mice were sacrificed and weighed. Both soleus muscles were then collected and weighed. The comparison results of muscle weight per body weight are shown in Fig. 2 (n = 6, *P < 0.05, **P < 0.01, 2-way ANOVA with Bonferroni's post hoc test). Furthermore, under the same conditions, both gastrocnemius muscles were collected and weighed. The comparison results of gastrocnemius muscle weight per body weight are shown in Fig. 3 (n = 6, *P < 0.05, **P < 0.01, 2-way ANOVA with Bonferroni's post hoc test).
(§1) In addition, the formalin-soaked soleus muscles were cut in the cross section at its largest diameter, and sections were prepared. After HE staining, the cross-sectional area of the muscle fibers was measured. The comparison results of soleus muscle cross-sectional area are shown in Fig. 4 (the area of 400 fibers pooled from 2 mice was measured and averaged for each condition, **P < 0.01, 2-way ANOVA with Bonferroni's post hoc test).

[2] = system: muscle atrophy model mice (high-fat diet administered mice); experiment: Effects of hydroxylated fatty acid on muscle atrophy model mice (high-fat diet administration); assay type: in vivo, C57BL/6J mice; conditions: 1% added to high-fat diet for 14 days, compared to administration of a high-fat diet alone; for soleus muscle weight (per body weight): Fig. 7, n = 12; for gastrocnemius muscle weight (per body weight): Fig. 8, n = 12; for tibialis anterior muscle cross-sectional area: HE staining, 400 fibers pooled from 2 mice, Fig. 9(B)
Procedure: C57BL/6J mice (male, 10 weeks old) were fed a normal diet (CE-2, CLEA Japan, Inc.), a high-fat diet (HFD32, CLEA Japan, Inc.), a 1% HYA-added high-fat diet, or a 1% LA (linoleic acid)-added high-fat diet (HYA manufactured by Noster Inc., LA manufactured by Sigma-Aldrich were used) each for 14 days to create a muscle atrophy model mouse by high-fat diet administration, and the effects by the administration of hydroxylated fatty acid were evaluated.
C57BL/6J mice (male, 10 weeks old) were fed a normal diet (CE-2, CLEA Japan, Inc.), a high-fat diet (HFD32, CLEA Japan, Inc.), a 1% HYA-added high-fat diet, or a 1% LA (linoleic acid)-added high-fat diet each for 14 days. After feeding, the mice were sacrificed and weighed. Both soleus muscles were collected and weighed. The comparison results of soleus muscle weight per body weight are shown in Fig. 7 (n = 12, **P < 0.01, 2-way ANOVA with Bonferroni's post hoc test). Furthermore, under the same conditions, both gastrocnemius muscles were collected and weighed. The comparison results of gastrocnemius muscle weight per body weight are shown in Fig. 8 (n = 12, **P < 0.01, 2-way ANOVA with Bonferroni's post hoc test).
as §1, with “formalin-soaked tibialis anterior muscle was” for “formalin-soaked soleus muscles were”, “HE staining (Fig. 9(A)),” for “HE staining,”, “of tibialis anterior” for “of soleus”, “Fig. 9(B)” for “Fig. 4”

[3] = compared to administration of a normal diet
[4] = compared to administration of linoleic acid

| SMILES | loss of soleus muscle (muscle weight per body weight) [1, 3] | loss of gastrocnemius muscle (gastrocnemius muscle weight per body weight) [1, 3] | loss of soleus muscle cross-sectional area [1, 3] | loss of gastrocnemius muscle (gastrocnemius muscle weight per body weight) [1, 4] | loss of soleus muscle cross-sectional area [1, 4] | soleus muscle weight (per body weight) [2] | gastrocnemius muscle weight (per body weight) [2] | tibialis anterior muscle cross-sectional area [2] |
| --- | --- | --- | --- | --- | --- | --- | --- | --- |
| CCCCC/C=C\CC(O)CCCCCCCCC(=O)O (stereo not drawn) [HYA, 10-hydroxy-cis-12-octadecenoic acid] | significantly inhibited | significantly inhibited | significantly inhibited | significantly inhibited | significantly inhibited | significantly increased | significantly increased | significantly increased |
| CCCCC/C=C\C/C=C\CCCCCCCC(=O)O [linoleic acid, reference compound] | did not significantly inhibit | did not significantly inhibit | did not significantly inhibit | – | – | a tendency toward an increase | a tendency toward an increase | a tendency toward an increase |
